Measured values from patent publication US11912789B2, “Peptide activating agent” (Interk Peptide Therapeutics Limited, priority 2018, dated 2024).

Tested on: PBMCs
Test: Foxp3+ Treg proportion in anti-CD3 stimulated PBMCs
Type: cell-based, human
Conditions: in the absence of RSKAKNPLYR-(2Adod)4-NH2; FIG. 9
Method: Shown is the percentage inhibition of Regulatory T cells (Tregs:Foxp3+) within human PBMCs in the presence of RSKAKNPLYR-(2Adod)4-NH2 (cells gated for CD4+/CD25+/CD127101. Anti-CD3 stimulated PBMCs were cultured together with RSKAKNPLYR-(2Adod)4-NH2 over a 5-concentration range plus vehicle control (0-1.25 μM) for 48 hrs. Treg populations were determined by measuring Foxp3+ proportion of cells within CD4+CD25+CD127^low population. Data were normalised due to donor variation. Data presented indicates the fold change in Foxp3+ Treg proportions in response to peptide treatment, +/−SEM, n=4. Data were analysed by RM two-way ANOVA with Dunnett's post-test comparing each peptide concentration with […], **p<0.01, ****p<0.0001. Dotted line indicates vehicle control for normalisation.
Anti-CD3 stimulated PBMCs were cultured together with RSKAKNPLYR-(2Adod)4-NH2, over a 5-concentration range plus vehicle control (0-1.25 μM) in combination with anti-PD-1 (Pembrolizumab) or isotype (hlgG4) for 48 hrs after which CD4+ and CD8+ T cells were assessed by flow cytometry. Treg populations were determined by measuring Foxp3+ proportion of cells within CD4+CD25+CD127^low populations. […] Data were analysed by RM two-way ANOVA with Sidak's post-test comparing peptide in combination with anti-PD-1 vs combination with hlgG4 at each dose, *p<0.05, **p<0.01. […]

With Pembrolizumab [anti-PD-1 antibodies] as the substance, how does the “proportion of Treg cells within PBMCs, anti-PD-1 versus isotype control” value read?
Its value is “same proportion of Treg cells”.
